Active and inactive are the calls of the source. No cut-off for these calls is given here.

Sequence of Substance-P receptor (Cavia porcellus) (P30547 whole entry): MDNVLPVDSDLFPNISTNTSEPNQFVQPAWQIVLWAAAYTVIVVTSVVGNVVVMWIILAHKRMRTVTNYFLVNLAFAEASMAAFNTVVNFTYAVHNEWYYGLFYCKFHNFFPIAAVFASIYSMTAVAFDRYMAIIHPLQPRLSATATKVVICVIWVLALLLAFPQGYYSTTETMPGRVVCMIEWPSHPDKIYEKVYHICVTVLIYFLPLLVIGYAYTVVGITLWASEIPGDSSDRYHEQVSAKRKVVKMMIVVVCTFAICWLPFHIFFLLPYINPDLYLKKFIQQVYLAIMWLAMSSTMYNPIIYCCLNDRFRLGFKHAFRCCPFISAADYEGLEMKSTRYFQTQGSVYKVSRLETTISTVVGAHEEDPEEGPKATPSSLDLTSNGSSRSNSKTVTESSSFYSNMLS

The first test has as its target Substance-P receptor (Cavia porcellus) (UniProt P30547). Put plainly: Antagonist activity at NK1 receptor in guinea pig trachea as inhibition of ASM-SP-induced bronchoconstriction up to 1 uM. In kind it is functional, tissue-based.
In the case of `CN(C(=O)c1cc(N=C=S)cc(N=C=S)c1)[C@@H](/C=C/C(=O)N[C@@H]1CCCCNC1=O)Cc1ccc(Cl)c(Cl)c1`, the result was inactive.
On to `COC(=S)Nc1cc(NC(=S)OC)cc(C(=O)N(C)[C@@H](/C=C/C(=O)N[C@@H]2CCCCNC2=O)Cc2ccc(Cl)c(Cl)c2)c1`, for which the outcome was inactive.
On to `CN(C(=O)c1cc(NC(=O)CBr)cc(NC(=O)CBr)c1)[C@@H](/C=C/C(=O)N[C@@H]1CCCCNC1=O)Cc1ccc(Cl)c(Cl)c1`, for which the result was inactive.
On the same count and under the same terms, next, `CC(=O)Nc1cc(NC(C)=O)cc(C(=O)N(C)[C@@H](/C=C/C(=O)N[C@@H]2CCCCNC2=O)Cc2ccc(Cl)c(Cl)c2)c1`: “inactive”; `CN(C(=O)c1cc(N)cc(N)c1)[C@@H](/C=C/C(=O)N[C@@H]1CCCCNC1=O)Cc1ccc(Cl)c(Cl)c1`: “inactive”.

The next test has the same target. Put plainly: Antagonist activity at NK1 receptor in guinea pig trachea as inhibition of ASM-SP-induced bronchoconstriction relative to control. In kind it is functional, tissue-based. On the set-up: scale not given: the % may be the effect or the level left.
Turning to `CN(C(=O)c1cc(C(F)(F)F)cc(C(F)(F)F)c1)[C@@H](/C=C/C(=O)N[C@@H]1CCCCNC1=O)Cc1ccc(Cl)c(Cl)c1`, the Activity stood at 89.4%.
Consider `CN(C(=O)c1cc([N+](=O)[O-])cc([N+](=O)[O-])c1)[C@@H](/C=C/C(=O)N[C@@H]1CCCCNC1=O)Cc1ccc(Cl)c(Cl)c1`, for which the Activity amounted to 96.1%.

The next test shares this target. Put plainly: Antagonist activity at NK1 receptor in guinea pig trachea as inhibition of ASM-SP-induced bronchoconstriction. In kind it is functional, tissue-based.
A word on the pKb: it is −log10 of the Kb, conventionally taken in molar units. The molecule `CN(C(=O)c1cc(C(F)(F)F)cc(C(F)(F)F)c1)[C@@H](/C=C/C(=O)N[C@@H]1CCCCNC1=O)Cc1ccc(Cl)c(Cl)c1` came in with a negative-log Kb (pKb) of 9.2.
`CN(C(=O)c1cc([N+](=O)[O-])cc([N+](=O)[O-])c1)[C@@H](/C=C/C(=O)N[C@@H]1CCCCNC1=O)Cc1ccc(Cl)c(Cl)c1` displayed a negative-log Kb (pKb) of 8.4.

In a further test the target is T1, Substance-K receptor (Cavia porcellus) (UniProt Q64077).
T1 sequence (whole entry): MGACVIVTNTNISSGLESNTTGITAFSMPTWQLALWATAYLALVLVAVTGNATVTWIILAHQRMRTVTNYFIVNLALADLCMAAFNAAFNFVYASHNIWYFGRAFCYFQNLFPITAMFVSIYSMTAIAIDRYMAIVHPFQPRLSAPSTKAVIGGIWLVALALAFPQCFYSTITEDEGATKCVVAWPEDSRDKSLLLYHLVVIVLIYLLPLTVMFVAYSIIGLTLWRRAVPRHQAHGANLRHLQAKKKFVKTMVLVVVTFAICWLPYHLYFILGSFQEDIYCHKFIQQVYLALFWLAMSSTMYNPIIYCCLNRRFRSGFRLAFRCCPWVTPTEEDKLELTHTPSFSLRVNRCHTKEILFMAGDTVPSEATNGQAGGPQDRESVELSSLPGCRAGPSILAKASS
Put plainly: Antagonist activity at NK2 receptor in guinea pig trachea as inhibition of [beta-Ala8]NKA(4-10)-induced bronchoconstriction relative to control. More on the design: scale not given: the % may be the effect or the level left. It counts as functional, tissue-based.
With `CN(C(=O)c1cc(C(F)(F)F)cc(C(F)(F)F)c1)[C@@H](/C=C/C(=O)N[C@@H]1CCCCNC1=O)Cc1ccc(Cl)c(Cl)c1`, the Activity came to 97%.
Same read-out and setting: next, `CN(C(=O)c1cc([N+](=O)[O-])cc([N+](=O)[O-])c1)[C@@H](/C=C/C(=O)N[C@@H]1CCCCNC1=O)Cc1ccc(Cl)c(Cl)c1`: 96.1%.

For another test, the target named is T1, Substance-K receptor (Cavia porcellus). Put plainly: Antagonist activity at NK2 receptor in guinea pig trachea as inhibition of [beta-Ala8]NKA(4-10)-induced bronchoconstriction. It counts as functional, tissue-based.
`CN(C(=O)c1cc(C(F)(F)F)cc(C(F)(F)F)c1)[C@@H](/C=C/C(=O)N[C@@H]1CCCCNC1=O)Cc1ccc(Cl)c(Cl)c1`: the pKb turned out to be 7.43.
`CN(C(=O)c1cc([N+](=O)[O-])cc([N+](=O)[O-])c1)[C@@H](/C=C/C(=O)N[C@@H]1CCCCNC1=O)Cc1ccc(Cl)c(Cl)c1` showed a pKb of 7.87.

A further test shares this target. Put plainly: Antagonist activity at NK2 receptor in guinea pig trachea as inhibition of [beta-Ala8]NKA(4-10)-induced bronchoconstriction up to 1 uM. It counts as functional, tissue-based.
As to `CN(C(=O)c1cc(N=C=S)cc(N=C=S)c1)[C@@H](/C=C/C(=O)N[C@@H]1CCCCNC1=O)Cc1ccc(Cl)c(Cl)c1`, the result was inactive.
Regarding `COC(=S)Nc1cc(NC(=S)OC)cc(C(=O)N(C)[C@@H](/C=C/C(=O)N[C@@H]2CCCCNC2=O)Cc2ccc(Cl)c(Cl)c2)c1`, the result was inactive.
Take `CN(C(=O)c1cc(NC(=O)CBr)cc(NC(=O)CBr)c1)[C@@H](/C=C/C(=O)N[C@@H]1CCCCNC1=O)Cc1ccc(Cl)c(Cl)c1`: the result was inactive.
The same measure, in the same setting: in the case of `CC(=O)Nc1cc(NC(C)=O)cc(C(=O)N(C)[C@@H](/C=C/C(=O)N[C@@H]2CCCCNC2=O)Cc2ccc(Cl)c(Cl)c2)c1` it was “inactive”; in that of `CN(C(=O)c1cc(N)cc(N)c1)[C@@H](/C=C/C(=O)N[C@@H]1CCCCNC1=O)Cc1ccc(Cl)c(Cl)c1`, “inactive”.

These data come from ChEMBL document CHEMBL1144575, “Design and synthesis of 3,5-disubstituted benzamide analogues of DNK333 as dual NK1/NK2 receptor probes” (Bioorg Med Chem Lett, 2007).
